Reference: patent publication US10538475B2, “Amphiphilic cyclobutenes and cylobutanes” (priority 2012, dated 2020)
Like-named read-outs stand apart in the source and are kept apart here.

Key:
M. tb (H37Rv) = assay: MIC by 96-well microplate twofold dilution, M. tb H37Rv; format: cell-based, Mycobacterium tuberculosis; conditions: minimal media, 5-7 weeks
M. smeg (mc2155) [1] = assay: MIC by 96-well microplate twofold dilution, M. smeg; format: cell-based; conditions: for MIC: M. smeg mc2155, minimal media, 3-4 day; for fold differences between MICs for M. smeg and M. tb: M. smeg vs M. tb
M. tb (CDC1551) = assay: MIC by 96-well microplate twofold dilution, M. tb CDC1551; format: cell-based, Mycobacterium tuberculosis; conditions: minimal media, 5-7 weeks
[2] = 1D 1H NMR aqueous stability and concentration dependent micelle formation; format: physicochemical; conditions: 100 μM, 500 μM, 750 μM, and 1000 μM; FIG. 2
Procedure: One-dimensional (1D)^1H-NMR spectroscopy was used to verify the chemical purity, aqueous stability, and concentration dependent micelle formation of eleven fatty acid analogs. Each compound was dissolved in deuterated dimethyl sulfoxide (DMSO-d6) to obtain a stock concentration of 20 mM. Four different concentrations were prepared from the stock solutions for NMR analysis: 1.00 mM, 750 μM, 500 μM, 100 μM. All NMR samples consisted of 600 μL of a deuterated 50 mM potassium phosphate buffer at pH 7.2 with 50 μM of 3 (trimethylsilyl) propionic-2,2,3,3-d4 acid sodium salt (TMSP). Each 600 μL NMR sample contains 30 μL (5%) of DMSO-d6 and was transferred to a 5 mm NMR tube for analysis.
A Bruker Avance DRX 500-MHz spectrometer equipped with a 5 mm triple-resonance cryoprobe (^1H, ^13C, ^15N) with a z-axis gradient was utilized for all 1D ^1H NMR experiments. Acquisition of NMR spectra was automated using a BACS-120 sample changer and Icon NMR software. All spectra were acquired at 298.15 K with 16 dummy scans, 64 scans, 32K data points, a spectral width of 5482.46 Hz, and a relaxation delay of 1.5 s. The NMR spectra were processed and analyzed using ACD/1D NMR Manager (Advanced Chemistry Development). The resulting 1D ^1H NMR spectra were visually inspected for evidence of micelle formation (peak broadening), or chemical instability/impurities (additional peaks). […]

M. smeg (mc2155) [3] = conditions: M. tb vs M. smeg; cited from earlier work
RAW 264.7 macrophages = conditions: cited from earlier work
[4] = highest concentration tested 256 μg/ml
[5] = highest concentration tested 1024 μg/ml
[6] = Mycobacterium tuberculosis, H37RV, highest concentration tested 256 μg/ml, read-out: MIC
[7] = highest concentration tested 1024 μg/ml, read-out: MIC
[8] = Mycobacterium tuberculosis, highest concentration tested 256 μg/ml, read-out: MIC

Row | Compound | MIC (M. tb (H37Rv); [4]) [µg/mL] | MIC (M. smeg (mc2155) [1]; [5]) [µg/mL] | MIC (M. smeg (mc2155) [1]; read-out: MIC) [µM] | fold differences between MICs for M. smeg and M. tb (M. smeg (mc2155) [1]) | MIC (M. tb (CDC1551); [4]) [µg/mL] | MIC (M. tb (H37Rv); read-out: MIC) [µM] | MIC (M. tb (CDC1551); read-out: MIC) [µM] | also measured
1 | 2-(Octanoic acid, 8-yl) 3-octylcyclobutanol and 3-(Octanoic acid, 8-yl) 2-octylcyclobutanol [Compound 4] | 2 | 256 | 784 | five to ten | 8 | – | – | –
2 | 2-(Octanoic acid, 8-yl) 3-octylcyclobutanone and 3-(octanoic acid, 8-yl) 2-octylcyclobutanone [Compound 3] | 32 | 64 | 197 | – | 64 | 99 | 197 | MIC (M. smeg (mc2155) [1]): ~313 µM
3 | 2-Chloro-4-(octanoic acid, 8-yl) 3-octylcyclobutanone-; 2-Chloro-3-(octanoic acid, 8-yl) 4-octylcyclobutanone [Compound 5] | 16 | 256 | 713 | – | 256 | 45 | 713 | –
4 | CCCCCCCC[C@H]1CC[C@H]1CCCCCCCC(=O)O (relative stereo) [Compound 2, cis-9,10-Ethanooctadecanoic acid] | 16 | 64 | 206 | five to ten | 8 | 52 | – | MIC (M. smeg (mc2155) [1]): ~313 µM
5 | CCCCCCCCC1=C(CCCCCCCC(=O)O)CC1 [Compound 6, 1-(Octanoic acid, 8-yl)-2-octylcyclobutene] | 16 | 256 | 830 | five to ten | 128 | 52 | 415 | –
6 | O=C(O)CCCCCCCC1C=CC1 (stereo not shown) [Compound 8, 8-(2-Cyclobuten-1-yl)-octanoic acid] | – | – | 326 | five to ten | – | – | – | MIC (M. tb (H37Rv); [6]): 4 µg/mL; MIC (M. smeg (mc2155) [1]; [7]): 64 µg/mL; MIC (M. tb (CDC1551); [8]): 4 µg/mL; micelle formation (peak broadening relative to TMSP) [2]: No micelle formation
7 | O=C(O)CCCCCCCC1CCC1 [Compound 9, 8-Cyclobutyloctanoic acid] | – | – | 645 | five to ten | – | – | – | MIC (M. tb (H37Rv); [6]): 4 µg/mL; MIC (M. smeg (mc2155) [1]; [7]): 128 µg/mL; MIC (M. tb (CDC1551); [8]): 4 µg/mL
8 | O=C(O)CCCCCCCC1CC(=O)C1 [Compound 10, 3-(Octanoic acid, 8-yl)cyclobutanone] | 256 | 128 | 603 | – | 128 | – | 603 | MIC (M. tb (H37Rv)): 1,206 μM
9 | O=C(O)CCCCCCCC1CC(O)C1 (stereo not shown) [Compound 11, 3-(Octanoic acid)cyclobutanol] | 128 | 64 | 302 | – | 64 | 597 | 299 | MIC (M. smeg (mc2155) [1]): ~313 µM
10 | N[C@@H]1CONC1=O [DCS, D-cycloserine, reference compound] | 12.5 | 75 | 313 | – | 12.5 | 122 | 122 | –
11 | CCCCCCCCCC(=O)O [Decanoic acid (DA), Decanoic acid, reference compound] | – | – | 752 | – | – | – | – | MIC (M. tb (H37Rv); [6]): 32 µg/mL; MIC (M. tb (H37Rv); Mycobacterium tuberculosis, H37RV, read-out: MIC): 188 µM; MIC (M. smeg (mc2155) [1]; [7]): 128 µg/mL; MIC (M. tb (CDC1551); [8]): 32 µg/mL; MIC (M. tb (CDC1551); Mycobacterium tuberculosis, read-out: MIC): 188 µM
12 | NNC(=O)c1ccncc1 [Isoniazid] | – | – | – | – | – | – | – | fold more potent inhibition of M. tb compared with M. smeg (M. smeg (mc2155) [3]): 100 fold
13 | CCCCCCCC/C=C\CCCCCCCC(=O)O [oleate, oleic acid] | – | – | – | – | – | – | – | concentrations displaying some toxicity to this cell line (RAW 264.7 macrophages): ≥ 200 µM
